Earlier results as cited in publication PMC7674238 (Accounts of chemical research, 2020).
Where two headings read alike, the source gives them in different places.

Columns and labels:
VanA VRE [1] = tested on: VanA VRE
[2] = tested on: vancomycin-resistant S. aureus (VRSA) strain VRS-2; settings: for dose-dependent bactericidal effect, rank order (relative to 2 h baseline): n=5/dose
[3] = mice
[4] = mice, iv
VanA VRE [5] = settings: 10 μM
D-Ala-D-Lac = D-Ala-D-Lac vs D-Ala-D-Ala
VanA VRE [6] = settings: vancomycin-resistant organisms

Row | SMILES | resistance development on 50-day serial exposure (VanA VRE [1]) | reduction in bacteria count ([2]; VanA VRSA, VRS2, without dosing optimization) [log10] | Maximum tolerated dose (MTD) ([3]; iv) [mg/kg] | tolerability [3] | AUC ([4]; 10 mg/kg) [µg·h/mL] | CL ([4]; 10 mg/kg) [L/h/kg] | Cmax ([4]; 10 mg/kg) [µg/mL] | Vd ([4]; 10 mg/kg) [L/kg] | t1/2 ([4]; 10 mg/kg) [h] | AUC ([4]; 50 mg/kg (MTD)) [µg·h/mL] | CL ([4]; 50 mg/kg (MTD)) [L/h/kg] | Cmax ([4]; 50 mg/kg (MTD)) [µg/mL] | Vd ([4]; 50 mg/kg (MTD)) [L/kg] | t1/2 ([4]; 50 mg/kg (MTD)) [h] | induction of bacteria cell permeabilization (VanA VRE [5]) | dose-dependent bactericidal effect, rank order (relative to 2 h baseline) [2] | loss in binding affinity between vancomycin and its target (D-Ala-D-Lac) [fold] | loss in antimicrobial activity (resistance) (VanA VRE [6]) [fold]
1 | CN[C@H](CC(C)C)C(=O)N[C@H]1C(=O)N[C@@H](CC(N)=O)C(=O)N[C@H]2C(=O)NC3C(=O)N[C@H](C(=O)N[C@H](C(=O)NCCC[N+](C)(C)C)c4cc(O)cc(O)c4-c4cc3ccc4O)[C@H](O)c3ccc(c(Cl)c3)Oc3cc2cc(c3OC2OC(CO)C(O)[C@H](O)[C@@H]2O[C@H]2CC(C)(NCc3ccc(-c4ccc(Cl)cc4)cc3)[C@H](O)[C@H](C)O2)Oc2ccc(cc2Cl)[C@H]1O (stereo partly shown) [compound 26, C1-CBP-vancomycin] | much more muted changes in potency | ~3 | ≥ 50 | well tolerated in mice | 81.1 | 0.12 | 14.1 | 1.25 | 7.0 | 430 | 0.12 | 58.9 | 1.04 | 6.2 | more significant |  |  | 
2 | CC(=O)NC[C@H]1CN(c2ccc(N3CCOCC3)c(F)c2)C(=O)O1 [linezolid] |  |  |  |  |  |  |  |  |  |  |  |  |  |  |  | 32 > 26 ≥ 16 > linezolid > 1 |  | 
3 | CN[C@H](CC(C)C)C(=O)N[C@H]1C(=O)N[C@@H](CC(N)=O)C(=O)N[C@H]2C(=O)N[C@H]3C(=O)N[C@H](C(=O)N[C@H](C(=O)O)c4cc(O)cc(O)c4-c4cc3ccc4O)[C@H](O)c3ccc(c(Cl)c3)Oc3cc2cc(c3O[C@@H]2O[C@H](CO)[C@@H](O)[C@H](O)[C@H]2O[C@H]2C[C@](C)(N)[C@H](O)[C@H](C)O2)Oc2ccc(cc2Cl)[C@H]1O [compound 1, vancomycin] |  |  |  |  |  |  |  |  |  |  |  |  |  |  |  | 32 > 26 ≥ 16 > linezolid > 1 | 1000 | 1000
